Data published in patent US20100256357A1, “HETEROCYCLES USEFUL AS INHIBITORS OF CARBONIC ANHYDRASE” (Agouron Pharmaceuticals, Inc., priority 2006, published 2010).
Where two headings read alike, the source gives them in different places.

Biological target: T1, human CA-II (Homo sapiens, UniProt P00918)
T1 construct: purchased Sigma-Aldrich C6165
Experiment: Carbonic Anhydrase-II (CA-II) Fluorimetric Assay-IC50 Determination
Type: biochemical
Details: for inhibition at 0.01 µM: at 10 nM (c7); for inhibition at 0.01 µM / inhibition at 0.1 µM: read-out: CA-II % inhibition at concentration of column 7; for inhibition at 0.1 µM: at 100 nM (c7)
Method: Carbonic Anhydrase-II (CA-II) Fluorimetric Assay-IC50 Determination
Compounds were diluted in DMSO at the concentration of 1 mM, then 50 μM and transferred to a 96-well plate for further dilutions (1:3 dilution, 11 points) in duplicate. Highest final concentration of compound in this CA-II Fluorimetric assay is 1 μM. Assays were conducted in a final volume of 100 μL in 50 mM Tris/HCl (pH 7.6), 100 mM Na2SO4 and 0.005% Tween-20 in a 96-well black assay plate. Fluorescein diacetate was used as the substrate. Enzyme inhibition was determined by pipetting 8 μL of human CA-II (5 nM, from Sigma-Aldrich, product #: C6165) into assay plate contained 2 μL of compound and 2 μL of substrate (10 μM) in 88 μL of assay buffer. The rate of the hydrolysis of fluorescein diacetate were measured spectrophometrically at 488 nm (excitation), 538 nm (emission) and 530 nm (cutoff) using a Molecular Devices SpectraMax M2 fluorescence reader at 25° C.

[1] = given instead of Kd (ND), read-out: CA-II IC50
[2] = Kd ND, IC50 given instead, read-out: CA-II IC50 (where Kd is ND)

SMILES	inhibition at 0.01 µM	IC50 [1]	also measured
CCCN(CCc1ccccn1)C(=O)c1nc(Cc2ccccc2)n(-c2ccc(S(N)(=O)=O)cc2)n1 [Example R-58, 1-[4-(aminosulfonyl)phenyl]-5-benzyl-N-propyl-N-(2-pyridin-2-ylethyl)-1H-124-triazole-3-carboxamide]	98%		
CN(CC(C)(O)c1ccccc1)C(=O)c1nc(Cc2ccccc2)n(-c2ccc(S(N)(=O)=O)cc2)n1 (stereo not drawn) [Example R-54, 1-[4-(aminosulfonyl)phenyl]-5-benzyl-N-(2-hydroxy-2-phenylpropyl)-N-methyl-1H-124-triazole-3-carboxamide]	97%		
Cc1cc(C)n(CCN(C)C(=O)c2nc(Cc3ccccc3)n(-c3ccc(S(N)(=O)=O)cc3)n2)n1 [Example R-66, 1-[4-(aminosulfonyl)phenyl]-5-benzyl-N-[2-(35-dimethyl-1H-pyrazol-1-yl)ethyl]-N-methyl-1H-124-triazole-3-carboxamide]	88%	3.55 nM	
Cc1ncsc1CCN(C)C(=O)c1nc(Cc2ccccc2)n(-c2ccc(S(N)(=O)=O)cc2)n1 [Example R-65, 1-[4-(aminosulfonyl)phenyl]-5-benzyl-N-methyl-N-[2-(4-methyl-13-thiazol-5-yl)ethyl]-1H-124-triazole-3-carboxamide]	90%		
CN(CC1CCCCO1)C(=O)c1nc(Cc2ccccc2)n(-c2ccc(S(N)(=O)=O)cc2)n1 (stereo not drawn) [Example R-106, 1-[4-(aminosulfonyl)phenyl]-5-benzyl-N-methyl-N-(tetrahydro-2H-pyran-2-ylmethyl)-1H-124-triazole-3-carboxamide]			IC50 [2]: 3.28 nM
CN(C(=O)c1nc(Cc2ccccc2)n(-c2ccc(S(N)(=O)=O)cc2)n1)C1CCCC1 [Example R-30, 1-[4-(aminosulfonyl)phenyl]-5-benzyl-N-cyclopentyl-N-methyl-1H-124-triazole-3-carboxamide]		2.45 nM	inhibition at 0.1 µM: 100%
NS(=O)(=O)c1ccc(-n2nc(C(=O)N3CCCCC3Cc3ccccc3)nc2Cc2ccccc2)cc1 (stereo not drawn) [Example R-53, 4-(5-benzyl-3-[(2-benzylpiperidin-1-yl)carbonyl]-1H-124-triazol-1-yl)benzenesulfonamide]	92%	3.36 nM	
N#CCCN(C(=O)c1nc(Cc2ccccc2)n(-c2ccc(S(N)(=O)=O)cc2)n1)C1CCCC1 [Example R-74, 1-[4-(aminosulfonyl)phenyl]-5-benzyl-N-(2-cyanoethyl)-N-cyclopentyl-1H-124-triazole-3-carboxamide]			IC50 [2]: 3.43 nM
Cc1noc(C2CCN(C(=O)c3nc(Cc4ccccc4)n(-c4ccc(S(N)(=O)=O)cc4)n3)C2)n1 (stereo not drawn) [Example R-63, 4-(5-benzyl-3-{[3-(3-methyl-124-oxadiazol-5-yl)pyrrolidin-1-yl]carbonyl}-1H-124-triazol-1-yl)benzenesulfonamide]	95%		
Cc1cc(CN(C)C(=O)c2nc(Cc3ccccc3)n(-c3ccc(S(N)(=O)=O)cc3)n2)n[nH]1 [Example R-50, 1-[4-(aminosulfonyl)phenyl]-5-benzyl-N-methyl-N-[(5-methyl-1H-pyrazol-3-yl)methyl]-1H-124-triazole-3-carboxamide]	95%		
NS(=O)(=O)c1ccc(-n2nc(C(=O)N3CCCC3Cc3cccnc3)nc2Cc2ccccc2)cc1 (stereo not drawn) [Example R-68, 4-(5-benzyl-3-{[2-(pyridin-3-ylmethyl)pyrrolidin-1-yl]carbonyl}-1H-124-triazol-1-yl)benzenesulfonamide]	92%	3.75 nM	
NS(=O)(=O)c1ccc(-n2nc(C(=O)N3CC(CO)C(c4ccccn4)C3)nc2Cc2ccccc2)cc1 (stereo not drawn) [Example R-59, 4-(5-benzyl-3-{[(3R4R)-3-(hydroxymethyl)-4-pyridin-2-ylpyrrolidin-1-yl]carbonyl}-1H-124-triazol1-yl)benzenesulfonamide]	97%		
CCN(CC)CCN(CC)C(=O)c1nc(Cc2ccccc2)n(-c2ccc(S(N)(=O)=O)cc2)n1 [Example R-39, 1-[4-(aminosulfonyl)phenyl]-5-benzyl-N-[2-(diethylamino)ethyl]-N-ethyl-1H-124-triazole-3-carboxamide]		3.62 nM	inhibition at 0.1 µM: 97%
